These molecules were tested on Hedgehog signalling pathway (assay: Gli-reporter NIH3T3 luciferase assay (Hedgehog pathway inhibition)). Settings: NIH3T3; Gli-reporter NIH-3T3 cells, recombinant mouse sonic hedgehog, 24 hours, luminescence; read-out: Category (Hedgehog pathway inhibition activity, IC50).
Format: cell-based
Procedure: In vitro biological evaluation of compounds of the invention was carried out using the procedure detailed below. The procedure provides activity data for the compounds of the invention against the Hedgehog signalling pathway. The activity is represented as IC50 values in Table 12 below.
The Gli-reporter NIH3T3 cell line (BPS Biosciences) was grown according to the suppliers recommendations. Briefly, cells were maintained in growth medium (DMEM supplemented with 10% calf serum, 1% Penicillin/Streptomycin, and 500 µg/mL of Geneticin) and grown at 37° C., 5% CO2. In order to passage cells they were first rinsed with phosphate buffered saline before the addition of 0.05% Trypsin/EDTA. Fresh growth media was added and the cells were transferred to a centrifuge tube, spun and resuspended at an appropriate cell density.
Gli-reporter NIH-3T3 cells were seeded at 20,000 cells/well into 96 well, poly-D-lysine coated white clear bottomed full area TC plates in growth media (without geneticin). Three wells were left with just media as cell free controls. Cells were then incubated for 24 hours at 37° C. in a 5% CO2.
Serial dilutions of the test compounds were prepared in 100% DMSO. 10 μl of compound or DMSO from each well was pipetted into a sterile, 0.5 ml deep well conical bottomed 96 well plate (intermediate plate). 190 μl of warmed assay media (Opti-MEM supplemented with 0.5% calf serum, 1% non-essential amino acids, 1 mM sodium pyruvate, 10 mM HEPES, 1% penicillin/Streptomycin) was then added to each well and mixed five times at 180 μl by electronic pipette to ensure homogeneity of the compound solution. This 1:20 dilution gives a top concentration of 50 μM in 5% DMSO, 95% assay media. 10 μl was pipetted from each well of the intermediate plate into a second deep well sterile plate. 490 μl of warm assay media was then added to each well and mixed five times at 300 μl. This gives a final top concentration of 1 μM in 0.1% DMSO.
After the 24 hour incubation, media was carefully removed by pipette and replaced with 45 μl of compound dilutions in triplicate. This was incubated for one hour at 37° C. in a 5% CO2. After an hour, 5 μl 10 μg/mL recombinant mouse sonic hedgehog (R&D Systems) was added to each well and the plates were incubated for a further 24 hours at 37° C., 5% CO2.
After 24 hours, plates were removed from the incubator and left to acclimatise to room temperature for 20 minutes. 50 μl of OneGLO assay reagent (Promega) was then added to each well and the plates gently shaken for a further 30 minutes. Plates were then read for luminescence on the EnVision plate reader (PerkinElmer).

`CN(Cc1ccccc1F)C1CCN(c2nnc(-c3ccnn3C)c3ccccc23)CC1` [Example 64, (2-fluorophenyl)methyl-methyl-[1-[4-(2-methylpyrazol-3-yl)phthalazin-1-yl]-4-piperidyl]ammonium] and `CN(Cc1ccc(F)nc1F)C1CCN(c2nnc(-c3ccnn3C)c3ccccc23)CC1` [Example 27, N-[(2,6-difluoro-3-pyridyl)methyl]-N-methyl-1-[4-(2-methylpyrazol-3-yl)phthalazin-1-yl]piperidin-4-amine] fall in the same range of IC50: 10 to 200 nM for the first, 10 to 200 nM for the second.

Compared with `Cn1nccc1-c1nnc(N2CCC(NCc3cccc(OC(F)(F)F)c3)CC2)c2ccccc12` [Example 34, 1-[4-(2-methylpyrazol-3-yl)phthalazin-1-yl]-N-[[3-(trifluoromethoxy)phenyl]methyl]piperidin-4-amine], `Cn1nccc1-c1nnc(N2CCC(NCc3ccccc3C(F)(F)F)CC2)c2ccccc12` [Example 40, 1-[4-(2-methylpyrazol-3-yl)phthalazin-1-yl]-N-[[2-(trifluoromethyl)phenyl]methyl]piperidin-4-amine] is lower in IC50: 10 to 200 nM for the first, less than 10 nM for the second.

First: CN(Cc1ccc(F)cc1C(F)(F)F)C1CCN(c2ccc(-c3ccnn3C)nn2)CC1 [Example 42, N-[[4-fluoro-2-(trifluoromethyl)phenyl]methyl]-N-methyl-1-[6-(2-methylpyrazol-3-yl)pyridazin-3-yl]piperidin-4-amine]
Second: Cn1nccc1-c1nnc(N2CCC(NCc3ccc(F)cc3C(F)(F)F)CC2)c2cnccc12 [Example 49, N-[[4-fluoro-2-(trifluoromethyl)phenyl]methyl]-1-[1-(2-methylpyrazol-3-yl)pyrido[3,4-d]pyridazin-4-yl]piperidin-4-amine]
The IC50 of the first is lower: less than 10 nM for the first, 10 to 200 nM for the second. The first is the more potent here.

`Cn1nccc1-c1nnc(N2CCC(NC(=O)Nc3ccc(C(F)(F)F)cc3)CC2)c2ccccc12` [Example 14, 1-[1-[4-(2-methylpyrazol-3-yl)phthalazin-1-yl]-4-piperidyl]-3-[4-(trifluoromethyl)phenyl]urea] and `Cn1nccc1-c1nnc(N2CCC(NC(=O)Nc3ccc(C#N)cc3)CC2)c2ccccc12` [Example 32, 1-(4-cyanophenyl)-3-[1-[4-(2-methylpyrazol-3-yl)phthalazin-1-yl]-4-piperidyl]urea] cannot be ordered by IC50: less than 10 nM for the first, less than 10 nM for the second.

First: Cn1nccc1-c1nnc(N2CCC(NCc3ccccc3)CC2)c2ccccc12 [Example 57, N-benzyl-1-[4-(2-methylpyrazol-3-yl)phthalazin-1-yl]piperidin-4-amine]
Second: Cn1nccc1-c1nnc(N2CCC(NC(=O)Nc3cccc(F)c3)CC2)c2ccccc12 [Example 16, 1-(3-fluorophenyl)-3-[1-[4-(2-methylpyrazol-3-yl)phthalazin-1-yl]-4-piperidyl]urea]
The IC50 of the first is higher: 200 to 2000 nM for the first, less than 10 nM for the second. The second is the more potent here.

Molecule `COc1cccc(NC(=O)NC2CCN(c3nnc(-c4ccnn4C)c4ccccc34)CC2)c1` [Example 24, 1-(3-methoxyphenyl)-3-[1-[4-(2-methylpyrazol-3-yl)phthalazin-1-yl]-4-piperidyl]urea] has an IC50 of less than 10 nM.

Same assay, conditions: NIH3T3; Gli-reporter NIH-3T3 cells, recombinant mouse sonic hedgehog, 24 hours, luminescence; read-out: Gli Luc nM (IC50)

Compared with `CN(Cc1ccc(F)cc1C(F)(F)F)C1CCN(c2ccc(-c3ccnn3C)nn2)CC1` [Example 42, N-[[4-fluoro-2-(trifluoromethyl)phenyl]methyl]-N-methyl-1-[6-(2-methylpyrazol-3-yl)pyridazin-3-yl]piperidin-4-amine], `Cn1nccc1-c1nnc(N2CCC(NC(=O)Nc3ccc(C(F)(F)F)cc3)CC2)c2ccccc12` [Example 14, 1-[1-[4-(2-methylpyrazol-3-yl)phthalazin-1-yl]-4-piperidyl]-3-[4-(trifluoromethyl)phenyl]urea] is 18-fold higher in IC50: 0.04 nM for the first, 0.71 nM for the second.

Same assay, conditions: NIH3T3; Gli-reporter NIH-3T3 cells, recombinant mouse sonic hedgehog, 24 hours, luminescence; read-out: Gli luc IC50

`Cn1nccc1-c1nnc(N2CCC(NS(=O)(=O)c3ccc(F)cc3F)CC2)c2c1CCC2` [Example 141, 2,4-difluoro-N-[1-[1-(2-methylpyrazol-3-yl)-6,7-dihydro-5H-cyclopenta[d]pyridazin-4-yl]-4-piperidyl]benzenesulfonamide] and `Cn1nccc1-c1nnc(N2CCC(NC(=O)Nc3ccc(F)cc3F)CC2)c2c1CCC2` [Example 138, 1-(2,4-difluorophenyl)-3-[1-[1-(2-methylpyrazol-3-yl)-6,7-dihydro-5H-cyclopenta[d]pyridazin-4-yl]-4-piperidyl]urea] fall in the same range of IC50: 10 to 200 nM for the first, 10 to 200 nM for the second.

`CN(Cc1cnccc1C(F)(F)F)C1CCN(c2nnc(-c3ccnn3C)c3ccccc23)CC1` [Example 154, N-methyl-1-[4-(2-methylpyrazol-3-yl)phthalazin-1-yl]-N-[[4-(trifluoromethyl)-3-pyridyl]methyl]piperidin-4-amine] and `Cc1nc(C(F)(F)F)c(CN(C)C2CCN(c3nnc(-c4ccnn4C)c4ccccc34)CC2)s1` [Example 96, N-methyl-1-[4-(2-methylpyrazol-3-yl)phthalazin-1-yl]-N-[[2-methyl-4-(trifluoromethyl)thiazol-5-yl]methyl]piperidin-4-amine] cannot be ordered by IC50: less than 10 nM for the first, less than 10 nM for the second.

`Cc1c(-c2ccnn2C)nnc(N2CCC(N(C)C(=O)Nc3ccc(F)cc3)CC2)c1C` [Example 113, 1-[1-[4,5-dimethyl-6-(2-methylpyrazol-3-yl)pyridazin-3-yl]-4-piperidyl]-3-(4-fluorophenyl)-1-methyl-urea] and `Cc1c(-c2ccnn2C)nnc(N2CCC(N(C)C(=O)Nc3cnncc3C(F)(F)F)CC2)c1C` [Example 107, 1-[1-[4,5-dimethyl-6-(2-methylpyrazol-3-yl)pyridazin-3-yl]-4-piperidyl]-1-methyl-3-[5-(trifluoromethyl)pyridazin-4-yl]urea] cannot be ordered by IC50: greater than 200 nM for the first, greater than 200 nM for the second.

`Cn1nccc1-c1nnc(N2CCC(NCc3ccc(F)cc3C(F)(F)F)CC2)c2c1CCC2` [Example 148, N-[[4-fluoro-2-(trifluoromethyl)phenyl]methyl]-1-[1-(2-methylpyrazol-3-yl)-6,7-dihydro-5H-cyclopenta[d]pyridazin-4-yl]piperidin-4-amine] and `Cc1c(-c2ccnn2C)nnc(N2CCC(NC(=O)Nc3ccc(F)cc3C(F)(F)F)CC2)c1C` [Example 100, 1-[1-[4,5-dimethyl-6-(2-methylpyrazol-3-yl)pyridazin-3-yl]-4-piperidyl]-3-[4-fluoro-2-(trifluoromethyl)phenyl]urea] fall in the same range of IC50: 10 to 200 nM for the first, 10 to 200 nM for the second.

First: Cc1c(-c2ccnn2C)nnc(N2CCC(N(C)Cc3ncccc3C(F)(F)F)CC2)c1C [Example 85, 1-[4,5-dimethyl-6-(2-methylpyrazol-3-yl)pyridazin-3-yl]-N-methyl-N-[[3-(trifluoromethyl)-2-pyridyl]methyl]piperidin-4-amine]
Second: Cc1c(-c2ccnn2C)nnc(N2CCC(N(C)Cc3ccnnc3)CC2)c1C [Example 90, 1-[4,5-dimethyl-6-(2-methylpyrazol-3-yl)pyridazin-3-yl]-N-methyl-N-(pyridazin-4-ylmethyl)piperidin-4-amine]
The IC50 of the first is lower: 10 to 200 nM for the first, greater than 200 nM for the second.

`Cn1nccc1-c1nnc(N2CCC(NCc3ncccc3C(F)(F)F)CC2)c2ccccc12` [Example 150, 1-[4-(2-methylpyrazol-3-yl)phthalazin-1-yl]-N-[[3-(trifluoromethyl)-2-pyridyl]methyl]piperidin-4-amine] and `CN(C1CCN(c2nnc(-c3ccnn3C)c3ccncc23)CC1)S(=O)(=O)c1ccc(F)cc1C(F)(F)F` [Example 103, 4-fluoro-N-methyl-N-[1-[1-(2-methylpyrazol-3-yl)pyrido[3,4-d]pyridazin-4-yl]-4-piperidyl]-2-(trifluoromethyl)benzenesulfonamide] fall in the same range of IC50: 10 to 200 nM for the first, 10 to 200 nM for the second.

Compared with `Cc1c(-c2ccncc2)nnc(N2CCC(NS(=O)(=O)c3ccc(F)cc3C(F)(F)F)CC2)c1C` [Example 119, N-[1-[4,5-dimethyl-6-(4-pyridyl)pyridazin-3-yl]-4-piperidyl]-4-fluoro-2-(trifluoromethyl)benzenesulfonamide], `CSc1ccccc1CN(C)C1CCN(c2nnc(-c3ccnn3C)c(C)c2C)CC1` [Example 88, 1-[4,5-dimethyl-6-(2-methylpyrazol-3-yl)pyridazin-3-yl]-N-methyl-N-[(2-methylsulfanylphenyl)methyl]piperidin-4-amine] is higher in IC50: 10 to 200 nM for the first, greater than 200 nM for the second. The first is the more potent here.
